molecular target: rat MCH-1 (Rattus norvegicus, UniProt P97639); assay: Radioligand binding assay at cloned rat MCH1 receptor ([3H] Compound A); design: host or cells: Peak rapid 293 (Peakr293) cells, transient calcium phosphate transfection, membranes; conditions: not given
Sequence (P97639 whole entry): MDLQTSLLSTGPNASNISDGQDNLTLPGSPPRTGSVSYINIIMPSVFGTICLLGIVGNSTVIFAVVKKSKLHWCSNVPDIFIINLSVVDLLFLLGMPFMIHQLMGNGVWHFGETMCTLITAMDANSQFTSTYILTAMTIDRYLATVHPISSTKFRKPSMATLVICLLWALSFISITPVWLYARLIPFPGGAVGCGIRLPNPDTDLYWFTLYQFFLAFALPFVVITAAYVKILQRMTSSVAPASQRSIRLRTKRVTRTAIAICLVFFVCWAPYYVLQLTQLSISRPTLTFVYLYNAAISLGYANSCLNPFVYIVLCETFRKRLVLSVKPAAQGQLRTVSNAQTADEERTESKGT

| Ki | SMILES |
| --- | --- |
| 469 nM | CC(C)C(=O)Nc1cccc(C2CCN(Cc3cccc4[nH]ccc34)CC2)c1 [Example 830] |

same assay, conditions: cloned rat MCH1 receptor; 0.08 nM [3H] Compound A; Peakr293 cell membranes; read-out: Ki (nM) rMCH1

| SMILES | Ki |
| --- | --- |
| Cc1cc(CN2CCC(c3cccc(NC(=O)C(C)C)c3)CC2)cc2c3ccccc3n(C)c12 [Example 822] | 1 nM |
| CCn1c2ccccc2c2cc(CN3CCC(c4cccc(N5CCCC5=O)c4)CC3)ccc21 [Example 824] | 36.5 nM |
| CCCC(=O)Nc1ccc(C2CCN(CCCCCn3ccc4ccccc43)CC2)cc1 [Example 826] | 786 nM |
| CC(C)C(=O)Nc1ccc(C2CCN(CCCCCCn3ccc4ccccc43)CC2)cc1 [Example 831] | 570 nM |
| COC(=O)c1ccc(-n2ccc3c(CN4CCC(c5cccc(NC(=O)C(C)C)c5)CC4)cccc32)cc1 [Example 834, METHYL 4-[4-({4-[3-(ISOBUTYRYLAMINO)PHENYL]-1-PIPERIDINYL)METHYL)-1H-INDOL-1-YL]BENZOATE] | 38.3 nM |
| CC(C)C(=O)Nc1cccc(C2CCN(Cc3cccc4c3ccn4-c3ccc(F)cc3)CC2)c1 [Example 836] | 7.8 nM |
| CCCC(=O)Nc1ccc(C2CCN(CCCCn3ccc4ccccc43)CC2)cc1 [Example 840] | 663 nM |
| COc1ccccc1-n1ccc2cc(CN3CCC(c4cccc(NC(=O)C(C)C)c4)CC3)ccc21 [Example 841] | 25 nM |
| COC(=O)c1ccccc1-n1ccc2cc(CN3CCC(c4cccc(NC(=O)C(C)C)c4)CC3)ccc21 [Example 843, METHYL 2-[5-({4-[3-(ISOBUTYRYLAMINO)PHENYL]-1-PIPERIDINYL}METHYL)-1H-INDOL-1-YL]BENZOATE] | 15.5 nM |
| CC(C)C(=O)Nc1cccc(C2CCN(CCCn3ccc4ccccc43)CC2)c1 [Example 844] | 37.8 nM |
| CC(C)C(=O)Nc1cccc(C2CCN(Cc3ccc4c(ccn4-c4ccc(C(F)(F)F)cc4)c3)CC2)c1 [Example 845] | 43.1 nM |
| CC(C)C(=O)Nc1cccc(C2CCN(Cc3ccc4c(ccn4-c4ccccc4-c4ccccc4)c3)CC2)c1 [Example 846] | 18.4 nM |
| CC(C)C(=O)Nc1cccc(C2CCN(Cc3ccc4c(ccn4-c4ccccc4Cl)c3)CC2)c1 [Example 849] | 9.4 nM |
| CC(C)C(=O)Nc1cccc(C2CCN(Cc3cccc4ccn(-c5cccc(Cl)c5Cl)c34)CC2)c1 [Example 855] | 256 nM |
| CC(C)C(=O)Nc1cccc(C2CCN(Cc3cccc4c3ccn4-c3cccc(Cl)c3Cl)CC2)c1 [Example 857] | 89.8 nM |
| Cc1cccc(-n2ccc3c(CN4CCC(c5cccc(NC(=O)C(C)C)c5)CC4)cccc32)c1 [Example 859] | 321 nM |
| COc1cccc(-n2ccc3cccc(CN4CCC(c5cccc(NC(=O)C(C)C)c5)CC4)c32)c1 [Example 860] | 40.5 nM |
| CC(C)C(=O)Nc1cccc(C2CCN(Cc3cccc4c3ccn4-c3cccc(C(F)(F)F)c3)CC2)c1 [Example 861] | 94.1 nM |
| Cc1ccc(-n2ccc3c(CN4CCC(c5cccc(NC(=O)C(C)C)c5)CC4)cccc32)cc1C [Example 862] | 438 nM |
| CC(C)C(=O)Nc1cccc(C2CCN(Cc3cccc4c3ccn4-c3ccc(Cl)c(Cl)c3)CC2)c1 [Example 864] | 292 nM |

| SMILES | Ki |
| --- | --- |
| CC(C)C(=O)Nc1cccc(C2CCN(Cc3cccc4c3ccn4-c3ccc(F)cc3F)CC2)c1 [Example 866] | 169 nM |
| CC(C)C(=O)Nc1cccc(C2CCN(Cc3cccc4ccn(-c5cccnc5)c34)CC2)c1 [Example 867] | 892 nM |
| CC(C)C(=O)Nc1cccc(C2CCN(Cc3ccc4cc[nH]c4c3)CC2)c1 [Example 868] | 403 nM |
| CC(C)C(=O)Nc1cccc(C2CCN(Cc3cccc4c3ccn4-c3ccccn3)CC2)c1 [Example 870] | 167 nM |
| CC(C)C(=O)Nc1cccc(C2CCN(Cc3cccc4c3ccn4-c3ccccc3F)CC2)c1 [Example 871] | 252 nM |
| CC(C)C(=O)Nc1cccc(C2CCN(Cc3cccc4c3ccn4-c3ccc(Cl)cc3)CC2)c1 [Example 872] | 306 nM |
| CC(C)C(=O)Nc1cccc(C2CCN(Cc3cccc4c3ccn4-c3cccnc3)CC2)c1 [Example 873] | 345 nM |
| Cc1cccc(-n2ccc3c(CN4CCC(c5cccc(NC(=O)C(C)C)c5)CC4)cccc32)c1C [Example 874] | 247 nM |
| CC(C)C(=O)Nc1cccc(C2CCN(Cc3cccc4c3ccn4-c3cccc(F)c3)CC2)c1 [Example 875] | 130 nM |
| CC(C)C(=O)Nc1cccc(C2CCN(Cc3cccc4c3ccn4-c3ccccc3Cl)CC2)c1 [Example 877] | 245 nM |
| Cc1cccc(-n2ccc3cccc(CN4CCC(c5cccc(NC(=O)C(C)C)c5)CC4)c32)c1C [Example 878] | 169 nM |
| CC(C)C(=O)Nc1cccc(C2CCN(CCCCCC(Oc3ccc(F)cc3)c3ccccc3F)CC2)c1 (centres unmarked) [Example 890] | 11.1 nM |
| COc1ccccc1OC(CCCCCN1CCC(c2cccc(NC(=O)C(C)C)c2)CC1)c1ccccc1F (centres unmarked) [Example 891] | 6.5 nM |
| CC(=O)c1ccc(OC(CCCCCN2CCC(c3cccc(NC(=O)C(C)C)c3)CC2)c2ccccc2F)cc1 (centres unmarked) [Example 893] | 23 nM |
| COc1ccc(OC(CCCCCN2CCC(c3cccc(NC(=O)C(C)C)c3)CC2)c2ccccc2F)cc1OC (centres unmarked) [Example 894] | 41.7 nM |
| CC(C)C(=O)Nc1cccc(C2CCN(CCCCCC(Oc3ccc(Br)cc3)c3ccccc3)CC2)c1 (centres unmarked) [Example 896] | 30.3 nM |
| CC(C)C(=O)Nc1cccc(C2CCN(CCCCCC(Oc3ccc(F)cc3)c3ccc(F)cc3)CC2)c1 (centres unmarked) [Example 897] | 6.4 nM |
| COc1ccc(OC(CCCCCN2CCC(c3cccc(NC(=O)C(C)C)c3)CC2)c2ccccc2)cc1 (centres unmarked) [Example 898] | 33.7 nM |
| CC(C)C(=O)Nc1cccc(C2CCN(CCCCCC(Oc3ccc(Br)cc3)c3ccc(F)cc3)CC2)c1 (centres unmarked) [Example 900] | 11.2 nM |
| CC(C)C(=O)Nc1cccc(C2CCN(CCCCCC(Oc3ccc(Cl)cc3)c3ccc(F)cc3)CC2)c1 (centres unmarked) [Example 901] | 8.2 nM |

Next, values leading:

| Ki | SMILES |
| --- | --- |
| 80.2 nM | CC(C)C(=O)Nc1cccc(C2CCN(CCCCC(O)c3ccc(Cl)cc3)CC2)c1 (centres unmarked) [Example 819] |
| 109 nM | CCCC(=O)Nc1ccc(C2CCN(Cc3ccc4c(c3)c3ccccc3n4CC)CC2)cc1 [Example 820] |
| 12.1 nM | CCC(=O)Nc1cccc(C2CCN(Cc3ccc4c(c3)c3ccccc3n4CC)CC2)c1 [Example 821] |
| 2.7 nM | CCn1c2ccccc2c2cc(CN3CCC(c4cccc(NC(=O)C5CC5)c4)CC3)ccc21 [Example 823] |
| 601 nM | CC(C)C(=O)Nc1ccc(C2CCN(CCCCCn3ccc4ccccc43)CC2)cc1 [Example 825] |
| 215 nM | CCC(=O)Nc1ccc(C2CCN(CCCCCn3ccc4ccccc43)CC2)cc1 [Example 827] |
| 516 nM | CCC(=O)Nc1ccc(C2CCN(CCCCCCn3ccc4ccccc43)CC2)cc1 [Example 828] |
| 228 nM | CC(C)C(=O)Nc1cccc(C2CCN(Cc3cc4ccccc4n3C)CC2)c1 [Example 829] |
| 614 nM | CC(C)C(=O)Nc1cccc(C2CCN(Cc3cccc4cc[nH]c34)CC2)c1 [Example 832] |
| 27.5 nM | COc1ccc(-n2ccc3cc(CN4CCC(c5cccc(NC(=O)C(C)C)c5)CC4)ccc32)cc1 [Example 833] |
| 21.3 nM | Cc1cccc(-n2ccc3cc(CN4CCC(c5cccc(NC(=O)C(C)C)c5)CC4)ccc32)c1 [Example 835] |
| 35.9 nM | CC(C)C(=O)Nc1cccc(C2CCN(CCCCn3ccc4ccccc43)CC2)c1 [Example 837] |
| 11.2 nM | CC(C)C(=O)Nc1cccc(C2CCN(Cc3ccc4c(ccn4-c4ccc(Cl)cc4)c3)CC2)c1 [Example 838] |
| 62.2 nM | COc1cccc(-n2ccc3cc(CN4CCC(c5cccc(NC(=O)C(C)C)c5)CC4)ccc32)c1 [Example 839] |
| 15.8 nM | CC(C)C(=O)Nc1cccc(C2CCN(Cc3ccc4c(ccn4-c4cccc(Cl)c4)c3)CC2)c1 [Example 842] |
| 10.2 nM | Cc1ccccc1-n1ccc2cc(CN3CCC(c4cccc(NC(=O)C(C)C)c4)CC3)ccc21 [Example 847] |
| 19.1 nM | Cc1ccc(-n2ccc3cc(CN4CCC(c5cccc(NC(=O)C(C)C)c5)CC4)ccc32)cc1 [Example 848] |

| Ki | SMILES |
| --- | --- |
| 9.5 nM | CC(C)C(=O)Nc1cccc(C2CCN(Cc3ccc4c(ccn4-c4cccc(C(F)(F)F)c4)c3)CC2)c1 [Example 850] |
| 27.4 nM | CC(C)C(=O)Nc1cccc(C2CCN(Cc3ccc4c(ccn4-c4ccccc4[N+](=O)[O-])c3)CC2)c1 [Example 851] |
| 14.5 nM | CC(C)C(=O)Nc1cccc(C2CCN(Cc3ccc4c(ccn4-c4ccccc4F)c3)CC2)c1 [Example 852] |
| 48 nM | CC(C)C(=O)Nc1cccc(C2CCN(Cc3ccc4c(ccn4-c4cccc5ccccc45)c3)CC2)c1 [Example 853] |
| 13.8 nM | CC(C)C(=O)Nc1cccc(C2CCN(Cc3ccc4c(ccn4-c4cccc(Cl)c4Cl)c3)CC2)c1 [Example 854] |
| 123 nM | COc1cccc(-n2ccc3c(CN4CCC(c5cccc(NC(=O)C(C)C)c5)CC4)cccc32)c1 [Example 856] |
| 44.9 nM | CC(C)C(=O)Nc1cccc(C2CCN(Cc3cccc4c3ccn4-c3cccc(Cl)c3)CC2)c1 [Example 858] |
| 269 nM | CC(C)C(=O)Nc1cccc(C2CCN(Cc3cccc4c3ccn4-c3cc(Cl)cc(Cl)c3)CC2)c1 [Example 863] |
| 94.6 nM | CC(C)C(=O)Nc1cccc(C2CCN(Cc3cccc4c3ccn4-c3ccc(F)cc3Cl)CC2)c1 [Example 865] |
| 431 nM | CC(C)C(=O)Nc1cccc(C2CCN(Cc3cccc4c3ccn4-c3ccncc3)CC2)c1 [Example 869] |
| 758 nM | CC(C)C(=O)Nc1cccc(C2CCN(Cc3cccc4c3ccn4-c3ccccc3C(F)(F)F)CC2)c1 [Example 876] |
| 19.8 nM | CC(=O)c1cccc(OC(CCCCCN2CCC(c3cccc(NC(=O)C(C)C)c3)CC2)c2ccccc2F)c1 (centres unmarked) [Example 888] |
| 8.6 nM | CC(C)C(=O)Nc1cccc(C2CCN(CCCCCC(Oc3ccccc3F)c3ccccc3F)CC2)c1 (centres unmarked) [Example 889] |
| 17.3 nM | COc1ccc(OC(CCCCCN2CCC(c3cccc(NC(=O)C(C)C)c3)CC2)c2ccccc2F)cc1 (centres unmarked) [Example 892] |
| 6.4 nM | CCOc1ccccc1OC(CCCCCN1CCC(c2cccc(NC(=O)C(C)C)c2)CC1)c1ccccc1F (centres unmarked) [Example 895] |
| 18 nM | CC(C)C(=O)Nc1cccc(C2CCN(CCCCCC(Oc3ccc(Cl)cc3)c3ccc(Cl)cc3)CC2)c1 (centres unmarked) [Example 899] |
